{
  "source": "patent US7892776B2",
  "about": "“Screening assay to identify modulators of protein kinase A” (The Regents of the University of California, priority 2007, dated 2011)",
  "key": {"[1]": {"target": "C-subunit of protein kinase A (Mus musculus, UniProt P05132, C200A)", "experiment": "biochemical"}, "[2]": {"target": "PKA C-subunit (Homo sapiens, UniProt P17612)", "conditions": "cited from earlier work"}, "[3]": {"target": "T1, type Iα PKA holoenzyme (Bos taurus, UniProt P00514)", "T1 construct": "made in house; host or cells: E. coli", "T1 sequence (P00514 with tags, fused parts or gaps)": "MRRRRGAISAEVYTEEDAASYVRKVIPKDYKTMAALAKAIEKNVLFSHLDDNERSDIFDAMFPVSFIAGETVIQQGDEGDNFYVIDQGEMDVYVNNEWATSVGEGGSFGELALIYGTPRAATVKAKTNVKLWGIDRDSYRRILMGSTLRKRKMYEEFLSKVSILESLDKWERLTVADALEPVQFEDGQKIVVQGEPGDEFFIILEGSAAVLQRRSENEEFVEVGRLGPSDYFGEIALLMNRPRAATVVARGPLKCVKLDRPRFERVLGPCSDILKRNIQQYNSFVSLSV", "experiment": "High throughput FP assay format (TR-IP20, C-subunit, R-subunit, cGMP)", "format": "binding", "conditions": "for HTS result (agonist / antagonist by FP reading versus 3 μM cGMP alone): tested at 25 μM, 40 nM TR-IP20; for reduction in FP signal due to competition with ATP: HTS format, compound at 200 μM, 2 mM ATP", "protocol": "The high throughput screening (HTS) was performed by addition of 1 μL of a test compound in DMSO to 49 μL buffer containing TR-IP20, C-subunit, R-subunit, and cGMP.\nAn agonistic Z′-factor was calculated between the half maximal and maximal FP response, while the antagonistic Z′-factor was calculated between the minimal and half maximal FP response. The maximal FP response was calculated by adding 1 μL cGMP in DMSO (500 μM final) to 49 μL HTS mix. Half maximal binding was calculated when 1 μL DMSO was used instead and minimal FP response was calculated by adding 1 μL Rp-8-Br-cAMPS in DMSO (50 μM final). Final DMSO concentration was 2%.\nAntagonism by Rp-8-Br-cAMPS was measured with the HTS format.\nFinally, to validate the assay, screening was performed on a selection of nucleotide and xanthine derivatives. […] Included in Set 1 are the known PKA effectors 8-Cl-cAMP (agonist) and Rp-8-Br-cAMPS (antagonist)."}},
  "note": "No end group written: not given here.",
  "data": [
    {"molecule": "GRTGRRNAIHD-NH2 [PKI (14-24)]", "values": [
      {"measurement": "IC50", "setting": "[1]", "result": 2.7, "unit": "µM"}
    ]},
    {"molecule": "Nc1ncnc2c1ncn2[C@@H]1O[C@H](COP(=O)(O)OP(=O)(O)OP(=O)(O)O)[C@@H](O)[C@H]1O", "note": "[ATP]", "values": [
      {"measurement": "enhancement of the affinity of the C-subunit for ATP", "setting": "[2]; in the presence of the R-subunit or IP20, literature (Lew et al. 1997)", "result": "over 2000 fold"},
      {"measurement": "Kd", "setting": "[2]; read-out: affinity of ATP for the PKA C-subunit", "result": "~25", "unit": "µM"}
    ]},
    {"molecule": "Nc1ncnc2c1nc(Br)n2C1OC2COP(O)(=S)OC2C1O", "note": "(stereo not shown) [Rp-8-Br-cAMPS]", "values": [
      {"measurement": "HTS result (agonist / antagonist by FP reading versus 3 μM cGMP alone)", "setting": "[3]", "result": "antagonist"}
    ]},
    {"molecule": "O=S(=O)(NCCNCC=Cc1ccc(Br)cc1)c1cccc2cnccc12", "note": "[H89, N-[2-(p-bromocinnamylamino)ethyl]-5-isoquinolinesulfonamide]", "values": [
      {"measurement": "reduction in FP signal due to competition with ATP", "setting": "[3]", "result": "no reduction in FP signal"}
    ]},
    {"molecule": "CN[C@@H]1C[C@H]2O[C@@](C)([C@@H]1OC)n1c3ccccc3c3c4c(c5c6ccccc6n2c5c31)C(=O)NC4", "note": "[staurosporine]", "values": [
      {"measurement": "reduction in FP signal due to competition with ATP", "setting": "[3]", "result": "no reduction in FP signal"}
    ]},
    {"molecule": "Nc1ncnc2c1nc(Cl)n2[C@@H]1O[C@@H]2COP(=O)(O)O[C@H]2[C@H]1O", "note": "[8-Cl-cAMP]", "values": [
      {"measurement": "HTS result (agonist / antagonist by FP reading versus 3 μM cGMP alone)", "setting": "[3]", "result": "agonist"}
    ]}
  ]
}
